The results in this text go back to patent publication US7700590B2, “Antibacterial agents” (University of New Orleans Research and Technology …, priority 2006, dated 2010).

Format in all cases: cell-based
Test [1] relates to Staphylococcus aureus 29213. The test can be described thus: Antibacterial growth inhibition assay (serial dilution, colorimeter at 600 nm), S. aureus 29213. The note with it: for MIC / MIC90: Staphylococcus aureus, 29213; for MIC / MIC, concentration at 50% inhibition of bacteria growth, S. aureus 29213: 50% growth inhibition, methicillin susceptible strain, serial dilution 238-0.46 μg/ml; for MIC: read-out: MIC, concentration at 50% inhibition of bacteria growth, S. aureus 29213; for MIC90: concentration of inhibition at 90%, Table 2, read-out: MIC90 S. aureus 29213. Further details: key to MIC, concentration at 50% inhibition of bacteria growth, S. aureus 29213: N stands for no inhibition. As for the experimental part:
(§1) The antibacterial activities of the compounds synthesized as described above were evaluated by assay against several strains of Gram positive bacteria from the American Type Culture Collection (ATCC), Staphylococcus aureus 29213, Staphylococcus aureus 43300, Enterococcus faecalis 29212, and Bacillus subtilis PY79. The minimum inhibition concentration (MIC, μg/mL) of each compound synthesized was tested against four bacterial strains. The inhibition of bacterial growth was monitored using a standard colorimeter at 600 nm using a serial dilution at concentrations 238, 119, 59.5, 29.8, 14.9, 7.44, 3.72, 1.86, 0.93, 0.46 μg/ml. Chloramphenicol was tested as a control, and inhibits bacteria growth (MIC90) at 7.44, 7.44, 4.0, 2.0 μg/mL, respectively, for the four bacterial strains listed in Table 1. In Table 1, the MICs are reported as the concentrations at 50% inhibition of bacteria growth, and N stands for no inhibition.

Another test has as its system Bacillus subtilis PY79. The test can be described thus: Antibacterial growth inhibition assay (serial dilution, colorimeter at 600 nm), B. subtilis PY79. Set-up: key to MIC, concentration at 50% inhibition of bacteria growth, B. subtilis PY79: N stands for no inhibition. The note with it: for MIC / MIC90: Bacillus subtilis, PY79; for MIC / MIC, concentration at 50% inhibition of bacteria growth, B. subtilis PY79: 50% growth inhibition, serial dilution 238-0.46 μg/ml; for MIC: read-out: MIC, concentration at 50% inhibition of bacteria growth, B. subtilis PY79; for MIC90: concentration of inhibition at 90%, Table 2, read-out: MIC90 B. subtilis PY79. As for the experimental part: as §1

The test system of test [2] is Staphylococcus aureus 43300. The test can be described thus: Antibacterial growth inhibition assay (serial dilution, colorimeter at 600 nm), S. aureus 43300. Set-up: key to MIC, concentration at 50% inhibition of bacteria growth, S. aureus 43300: N stands for no inhibition. The note with it: for MIC: Staphylococcus aureus, 43300, read-out: MIC, concentration at 50% inhibition of bacteria growth, S. aureus 43300; for MIC / MIC, concentration at 50% inhibition of bacteria growth, S. aureus 43300: 50% growth inhibition, methicillin resistant strain, serial dilution 238-0.46 μg/ml. On the procedure:
as §1

In test [3] the test system is Gram positive bacteria, including S. aureus, E. faecalis and B. subtilis. The test is described as follows: Antibacterial activity, statements not tied to one strain. The note with it: for antibacterial activity in words: strain not singled out. On the procedure: as §1
Test [4] deals with Enterococcus faecalis 29212. The test can be described thus: Antibacterial growth inhibition assay (serial dilution, colorimeter at 600 nm), E. faecalis 29212. Set-up: key to MIC, concentration at 50% inhibition of bacteria growth, E. faecalis 29212: N stands for no inhibition. The note with it: for MIC, concentration at 50% inhibition of bacteria growth, E. faecalis 29212 / MIC: 50% growth inhibition, vancomycin susceptible strain, serial dilution 238-0.46 μg/ml; for MIC: Enterococcus faecalis, 29212, read-out: MIC, concentration at 50% inhibition of bacteria growth, E. faecalis 29212. On the procedure: as §1

≈ marks a conversion by molar mass, not a printed value.

Usually MIC90 stands for the lowest concentration that inhibits either 90% of growth or 90% of the strains tested, depending on the study. Regarding `CCN1CC[C@@H](CN(Cc2ccccc2)Cc2ccc(Cl)c(Cl)c2)OC1=O` [Compound A11, 6-{[benzyl-(3,4-dichloro-benzyl)-amino]-methyl}-3-ethyl-[1,3]oxazinan-2-one], the “antibacterial activity in words” value in test [1] (S. aureus 29213) is “excellent activity”; in the test on Bacillus subtilis PY79 (B. subtilis PY79), “excellent activity”; in test [2] (S. aureus 43300), “excellent activity”; in test [3] it was “most potent”; in test [4] (E. faecalis 29212) it was “no activity”. For the same compound, the MIC in test [1] was found to be 5.6 µg/mL (≈ 13.7 µM); in the test with Bacillus subtilis PY79, 5 µg/mL (≈ 12.3 µM); in test [2] it was 6.56 µg/mL (≈ 16.1 µM). Besides, the MIC90 in test [1] was 9.85 µg/mL (≈ 24.2 µM); with Bacillus subtilis PY79 it was 7.44 µg/mL (≈ 18.3 µM); in test [3] (strain not named in the sentence (Table 2: S. aureus 29213, B. subtilis PY79)) it was less than 10 µg/mL. Moreover, the “MIC, concentration at 50% inhibition of bacteria growth, E. faecalis 29212” value in test [4] was “N”.
`CCN1CC[C@@H](CN(Cc2ccccc2)Cc2cccc3ccccc23)OC1=O` [Compound A13]: the MIC in test [1] came out at 10 µg/mL (≈ 25.7 µM); in the test with Bacillus subtilis PY79, 7.6 µg/mL (≈ 19.6 µM); in test [2] it was 35 µg/mL (≈ 90.1 µM); in test [4], 7.4 µg/mL (≈ 19 µM). The MIC90 turned out to be 14.9 µg/mL (≈ 38.4 µM) in test [1] and 30 µg/mL (≈ 77.2 µM) in the test with Bacillus subtilis PY79. In addition, in test [3], the “antibacterial activity in words” value is “most potent”.
With `CCN1CC[C@@H](CN(Cc2ccccc2)Cc2cccnc2)OC1=O` [Compound A14], the “MIC, concentration at 50% inhibition of bacteria growth, S. aureus 29213” value in test [1] is recorded as “N”. Moreover, in the test on Bacillus subtilis PY79, the “MIC, concentration at 50% inhibition of bacteria growth, B. subtilis PY79” value is on record as “N”. The “MIC, concentration at 50% inhibition of bacteria growth, S. aureus 43300” value in test [2] is recorded as “N”. The “antibacterial activity in words” value in test [3] is “decreased or nullified”. The “MIC, concentration at 50% inhibition of bacteria growth, E. faecalis 29212” value in test [4] worked out at 238 µg/mL.
For the compound `CCN1CC[C@@H](CN(Cc2ccccc2)Cc2ccccn2)OC1=O` [Compound A15], the “MIC, concentration at 50% inhibition of bacteria growth, S. aureus 29213” value in test [1] is on record as “N”. Further, the “MIC, concentration at 50% inhibition of bacteria growth, B. subtilis PY79” value against Bacillus subtilis PY79 is reported as “N”. The “MIC, concentration at 50% inhibition of bacteria growth, S. aureus 43300” value in test [2] is on record as “N”. Moreover, in test [3], the “antibacterial activity in words” value is recorded as “decreased or nullified”. Moreover, the “MIC, concentration at 50% inhibition of bacteria growth, E. faecalis 29212” value in test [4] was “N”.
Regarding `CCN1CC[C@@H](CN(Cc2ccccc2)Cc2ccccc2C)OC1=O` [Compound A17], the “concentration of complete (greater than 90%) inhibition” value in test [1] (S. aureus 29213) is 30 µg/mL; in test [2] (S. aureus 43300, methicillin resistant), 30 µg/mL. In addition, the MIC in test [1] came to 22 µg/mL (≈ 62.4 µM); in the test with Bacillus subtilis PY79, 26 µg/mL (≈ 73.8 µM); in test [2], 22.5 µg/mL (≈ 63.8 µM); in test [4], 8.1 µg/mL (≈ 23 µM). Also, the MIC90 in test [1] is 29.8 µg/mL (≈ 84.5 µM); with Bacillus subtilis PY79, 59.5 µg/mL (≈ 169 µM). In test [3], the “antibacterial activity in words” value is given as “most potent”. Further, the “concentration inhibiting over 90% growth” value in test [4] (E. faecalis 29212) amounted to 14.9 µg/mL.
For the compound `CN1CC[C@@H](CN(Cc2ccccc2)Cc2ccc3ccccc3c2)OC1=O` [Compound B9], the MIC in test [1] came out at 11.5 µg/mL (≈ 30.7 µM); with Bacillus subtilis PY79, 12 µg/mL (≈ 32 µM); in test [2], 13 µg/mL (≈ 34.7 µM); in test [4], 14.9 µg/mL (≈ 39.8 µM). The results for the MIC90 (in test [1]; with Bacillus subtilis PY79) were 14.9 µg/mL (≈ 39.8 µM) and 30 µg/mL (≈ 80.1 µM), respectively. Further, the “antibacterial activity in words” value in test [3] is on record as “most potent”.
